The results in this text go back to ChEMBL document CHEMBL3217405, “Methanocarba ring as a ribose modification in ligands of G protein-coupled purine and pyrimidine receptors: synthetic approaches” (Medchemcomm, 2013).

Where only a bound is given, the exact number is not on record here.

As usually defined, the Ki is a dissociation constant, usually derived from enzyme kinetics or from competition with a known ligand. A low value points to higher affinity. As usually defined, the EC50 is the concentration that produces a half-maximal response.

Assay [1] concerns the target Adenosine receptors; A1 & A3 (Homo sapiens) (UniProt P30542+P0DMS8). The assay can be described thus: Selectivity ratio of adenosine A3 receptor (unknown origin) over adenosine A1 receptor (unknown origin).
Assay [2] deals with T1, Adenosine receptor A3 (Homo sapiens, UniProt P0DMS8).
T1 sequence (P0DMS8 whole entry): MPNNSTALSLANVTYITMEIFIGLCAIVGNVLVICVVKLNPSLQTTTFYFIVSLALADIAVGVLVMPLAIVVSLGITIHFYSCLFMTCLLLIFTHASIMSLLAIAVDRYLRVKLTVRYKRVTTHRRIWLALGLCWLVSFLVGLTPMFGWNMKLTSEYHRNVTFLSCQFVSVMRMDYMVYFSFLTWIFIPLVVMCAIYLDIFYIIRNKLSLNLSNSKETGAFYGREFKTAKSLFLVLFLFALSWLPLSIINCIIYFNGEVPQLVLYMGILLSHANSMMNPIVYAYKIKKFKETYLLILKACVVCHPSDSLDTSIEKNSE
The assay can be described thus: Binding affinity to adenosine A3 receptor (unknown origin).

Assay [3] deals with T1, Adenosine receptor A3. The assay can be described thus: Agonist activity at adenosine A3 receptor (unknown origin) assessed as stimulation of [35S]GTPgammaS binding. Type of assay: functional.

In the case of `CNc1nc(Cl)nc2c1ncn2[C@H]1[C@H](O)[C@H](O)[C@]2(CO)C[C@H]12`, in assay [1], the Selectivity ratio was found to be 39.

Regarding `CNc1ncnc2c1ncn2[C@H]1[C@H](O)[C@H](O)[C@]2(CO)C[C@H]12`, the Selectivity ratio in assay [1] was determined as 12.

In turn, `O=P(O)(OC[C@@]12C[C@@H]1[C@@H](n1cnc3c(O)ncnc31)[C@H](O)[C@@H]2O)OP(=O)(O)OC[C@@]12C[C@@H]1[C@@H](n1cnc3c(O)ncnc31)[C@H](O)[C@@H]2O` returned a Ki at Adenosine receptor A3 [2] of 22 µM.

Turning to `OC[C@@]12C[C@@H]1[C@@H](n1cnc3c(NCc4cccc(I)c4)nc(Cl)nc31)[C@H](O)[C@@H]2O`, the EC50 at Adenosine receptor A3 [3] is less than 0.001 µM.

As to `OC[C@@]12C[C@@H]1[C@@H](n1cnc3c(NCc4cccc(I)c4)ncnc31)[C@H](O)[C@@H]2O`, the EC50 on Adenosine receptor A3 [3] was less than 0.001 µM.

`CNC(=O)[C@@]12C[C@@H]1[C@@H](n1cnc3c(NC)nc(Cl)nc31)[C@H](O)[C@@H]2O`: in assay [1], the Selectivity ratio came out at 130.
